Reference: patent US8450372B2, “Formulations of suberoylanilide hydroxamic acid and methods for producing same” (Merck Sharp & Dohme Corp., priority 2005, dated 2013)
Where two headings read alike, the source gives them in different places. Marks after values point to notes of the source that are not given here.

How the values were obtained:
[1] = Dissolution rate of about 100 mg SAHA API before encapsulation (USP Dissolution Apparatus II, 900 mL 2.0% Tween, 37±0.5° C., 100 rpm, HPLC); assay type: physicochemical; conditions: for Average SAHA % Dissolved at Time, minutes 0: 0 minutes; for Average SAHA % Dissolved at Time, minutes 10: 10 minutes; for Average SAHA % Dissolved at Time, minutes 15: 15 minutes; for Average SAHA % Dissolved at Time, minutes 20: 20 minutes; for Average SAHA % Dissolved at Time, minutes 30: 30 minutes; for Average SAHA % Dissolved at Time, minutes 45: 45 minutes; for Average SAHA % Dissolved at Time, minutes 60: 60 minutes
Method: Dissolution rates or profiles in vitro of “about 100 mg of the active ingredient of the pharmaceutical composition” is measured according to the steps and conditions in Example 15. In one embodiment, it is measured by using a USP Dissolution Apparatus II with a helical sinker (Quality Lab Accessories L.L.C., Manville, N.J.) in 900 mL of 2.0% Tween (TCI America, Portland, Oreg.) at a temperature of 37±0.5° C., and paddles rotated at 100 rpm.
The dissolution rate of 100 mg of SAHA API before encapsulation was evaluated using a USP Dissolution Apparatus II (VK 7000, Varian Inc., Cary, N.C.). About 100 mg of SAHA was delivered to vessels containing 900 mL of 2.0% Tween (TCI America, Portland, Oreg.) at a temperature of 37±0.5° C. The paddles were rotated at 100 rpm and samples were pulled at specified time intervals via an autosampler (VK 8000, Varian Inc., Cary, N.C.) equipped with 35 μm full flow filters (Varian Inc., Cary, N.C.).
Subsequently, samples were assayed for SAHA by High Performance Liquid Chromatography (Agilent 1100 series, Agilent Technologies Inc., Wilmington, Del.). The chromatographic analysis was conducted using a Phenomenex Luna C8 (2) (100×4.6 mm) 5 μm particle size column, a mobile phase of 1:1 methanol/0.1% trifluroacetic acid (Reagent Grade, Fisher), and a detection wavelength of 242 nm.

[2] = Phase I study: safety and tolerability of oral vorinostat 400 mg q.d.; assay type: in vivo, human; conditions: short-term administration, patients with advanced cancer
Method: (§1) This Phase I study conducted in advanced stage cancer patients assessed safety and tolerability of oral vorinostat administered 400 mg q.d., single- and multiple-dose serum pharmacokinetics (PK) of vorinostat, and the effect of a standard high-fat meal on single-dose vorinostat PK. Patients received a single-dose of 400 mg vorinostat on Day 1 (fasted) and Day 5 (after a standard high-fat meal) with 48 hours of postdose PK sampling on both days. Patients then received 400 mg vorinostat once a day on Days 7 through 28 (22 days of dosing). On Day 28, vorinostat was administered after a standard high-fat meal with PK sampling for 24 hrs postdose. Of 23 patients enrolled, 23 were evaluable for Day 1 PK, 20 for Day 5 PK, and 14 for Day 28 PK. The apparent t1/2 of vorinostat was short.

[3] = Phase I study: single- and multiple-dose serum pharmacokinetics of oral vorinostat 400 mg, fasted and after high-fat meal; assay type: in vivo, human; conditions: for fe (fraction of dose excreted unchanged in urine): arithmetic mean; for Tmax: median; for AUC(0-t): read-out: AUC0-24 hr
Method: as §1
Table 22: PK Parameters of Vorinostat Following Single and Multiple Doses of Vorinostat 400 mg Daily

[4] = Solubility of SAHA raw material (physical and chemical properties of raw materials); assay type: physicochemical; conditions: water
Text: Table 10 summarizes the physical properties of the raw materials in the capsule.

[5] = 400 mg single oral dose, high-fat meal vs fasted
[6] = single dose fed/single dose fasted, 400 mg

For `O=C(CCCCCCC(=O)Nc1ccccc1)NO` [1007D, suberoylanilide hydroxamic acid], the “Average SAHA % Dissolved at Time, minutes 0” value [1] was 0.0%, the “Average SAHA % Dissolved at Time, minutes 10” value [1] was 37.8% and the “Average SAHA % Dissolved at Time, minutes 15” value [1] was 46.1%. For the same compound, the “Average SAHA % Dissolved at Time, minutes 20” value [1] was 52.1%, the “Average SAHA % Dissolved at Time, minutes 30” value [1] was 61.9% and the “Average SAHA % Dissolved at Time, minutes 45” value [1] was 71.8%. The “Average SAHA % Dissolved at Time, minutes 60” value [1] was 79.3%.

In the case of `O=C(CCCCCCC(=O)Nc1ccccc1)NO` [vorinostat, N-hydroxy-N′-phenyloctanediamide], the tolerability [2] is reported as “generally well tolerated”, the “Accumulation ratio: AUC0-24 hr multiple dose fed/AUC0-24 hr single dose fed (GMR)” value ([3]; 400 mg daily) is reported as 1.21 and the “Linearity ratio: AUC0-24 hr multiple dose fed/AUC0-∞ single dose fed (GMR)” value ([3]; 400 mg daily) is reported as 1.23. For the same compound, the “fe (fraction of dose excreted unchanged in urine)” value ([3]; 400 mg oral, multiple doses (once daily for 22 days), fed, n = 12) was 0.0037, the t1/2 ([3]; 400 mg oral, multiple doses (once daily for 22 days), fed, harmonic mean) was 1.34 h and the Cmax ([3]; 400 mg oral, multiple doses (once daily for 22 days), fed, serum, geometric mean) was 1130 nM. The “fe (fraction of dose excreted unchanged in urine)” value ([3]; 400 mg oral, single dose, fasted, n = 22) was 0.0021, the Tmax ([3]; 400 mg oral, single dose, fasted) was 1.50 h and the “AUC0-∞” value ([3]; 400 mg oral, single dose, fed (high-fat meal), serum, geometric mean) was 5.33 µM·h. For the same compound, the “fe (fraction of dose excreted unchanged in urine)” value ([3]; 400 mg oral, single dose, fed, n = 21) was 0.0030, the AUC0-24 hr ([3]; 400 mg oral, single dose, fed, serum, geometric mean) was 5.33 µM·h and the “extent of absorption, effect of high-fat meal” value [3, 5] was “small increase”. The “rate of absorption, effect of high-fat meal” value [3, 5] was “modest decrease”, the “apparent t1/2” value ([3]; advanced cancer patients, 400 mg oral, serum) was “short” and the “Tmax, effect of high-fat meal” value ([3]; fed state, 400 mg oral) was “delayed”. For the same compound, the “lag time before detectable levels in serum” value ([3]; fed state, most subjects, 400 mg oral) was “at least 15 minutes”, the Tmax ([3]; human, serum, po, 400 mg, 400 mg oral, multiple doses (once daily for 22 days), fed, read-out: Tmax) was 4.21 h and the AUC(0-t) ([3]; human, serum, po, 400 mg, 400 mg oral, multiple doses (once daily for 22 days), fed, serum, geometric mean) was 6.46 µM·h. The Cmax ([3]; human, serum, po, 400 mg, 400 mg oral, single dose, fasted, geometric mean) was 1120 nM, the half-life ([3]; human, serum, po, 400 mg, 400 mg oral, single dose, fasted, harmonic mean) was 1.74 h and the AUC(0-t) ([3]; human, serum, po, 400 mg, 400 mg oral, single dose, fasted, serum, geometric mean) was 3.82 µM·h. It also gave a Cmax ([3]; human, serum, po, 400 mg, 400 mg oral, single dose, fed, geometric mean) of 1020 nM, a half-life ([3]; human, serum, po, 400 mg, 400 mg oral, single dose, fed, harmonic mean) of 1.44 h and a Tmax ([3]; human, serum, po, 400 mg, 400 mg oral, single dose, fed, read-out: Tmax) of 4 h. The AUC(0-inf) ([3]; human, 400 mg oral, single dose, fasted, serum, geometric mean) was 3.87 µM·h, the Trough concentrations ([3]; multiple-dose administration, 400 mg once a day, serum) was “generally below the limit of quantification” and the “AUC0-∞ GMR (geometric mean ratio)” value [3, 6] was 1.38^§. The “Cmax GMR (geometric mean ratio)” value [3, 6] was 0.91^§ and the solubility [4] was less than 100 µg/mL.

In the case of `O=C(CCCCCCC(=O)Nc1ccccc1)NO` [1008D, suberoylanilide hydroxamic acid], the “Average SAHA % Dissolved at Time, minutes 0” value [1] is reported as 0.0%, the “Average SAHA % Dissolved at Time, minutes 10” value [1] is reported as 26.8% and the “Average SAHA % Dissolved at Time, minutes 15” value [1] is reported as 34.8%. The “Average SAHA % Dissolved at Time, minutes 20” value [1] was 41.5%, the “Average SAHA % Dissolved at Time, minutes 30” value [1] was 51.3% and the “Average SAHA % Dissolved at Time, minutes 45” value [1] was 61.8%. The “Average SAHA % Dissolved at Time, minutes 60” value [1] was 69.8%.

With `O=C(CCCCCCC(=O)Nc1ccccc1)NO` [1136-1136-00-001, suberoylanilide hydroxamic acid] the “Average SAHA % Dissolved at Time, minutes 0” value [1] was 0.0%, the “Average SAHA % Dissolved at Time, minutes 10” value [1] was 38.2% and the “Average SAHA % Dissolved at Time, minutes 15” value [1] was 48.9%. The “Average SAHA % Dissolved at Time, minutes 20” value [1] was 57.3%, the “Average SAHA % Dissolved at Time, minutes 30” value [1] was 69.3% and the “Average SAHA % Dissolved at Time, minutes 45” value [1] was 80.6%. The “Average SAHA % Dissolved at Time, minutes 60” value [1] was 87.7%.

With `O=C(CCCCCCC(=O)Nc1ccccc1)NO` [1376-C-RO-02, suberoylanilide hydroxamic acid] the “Average SAHA % Dissolved at Time, minutes 0” value [1] was 0.0%, the “Average SAHA % Dissolved at Time, minutes 10” value [1] was 31.1% and the “Average SAHA % Dissolved at Time, minutes 15” value [1] was 39.7%. The “Average SAHA % Dissolved at Time, minutes 20” value [1] was 47.1%, the “Average SAHA % Dissolved at Time, minutes 30” value [1] was 58.3% and the “Average SAHA % Dissolved at Time, minutes 45” value [1] was 70.1%. The “Average SAHA % Dissolved at Time, minutes 60” value [1] was 78.3%.
